This series has as its system HaCaT, a human keratinocyte cell line. Briefly: Live/dead fluorescence staining cytotoxicity. The conditions noted are these: treated at different concentrations for 24 h, calcein-AM / ethidium homodimer. The format is cell-based. On the procedure: First, HaCaT, a human keratinocyte cell line, was treated with tannic acid, TAMA, and TAMA-introduced nanoparticles (TANV) at different concentrations for 24 h. Thereafter, calcein-acetoxymethyl ester (calcein-AM), which stains viable cells, and ethidium homodimer, which stains dead cells, were treated simultaneously, and then washed twice with the PBS buffer solution to obtain images of viable and dead cells through fluorescence microscopy.

As to `O=C(OC[C@H]1O[C@@H](OC(=O)c2cc(O)c(O)c(OC(=O)c3cc(O)c(O)c(O)c3)c2)[C@H](OC(=O)c2cc(O)c(O)c(OC(=O)c3cc(O)c(O)c(O)c3)c2)[C@@H](OC(=O)c2cc(O)c(O)c(OC(=O)c3cc(O)c(O)c(O)c3)c2)[C@@H]1OC(=O)c1cc(O)c(O)c(OC(=O)c2cc(O)c(O)c(O)c2)c1)c1cc(O)c(O)c(OC(=O)c2cc(O)c(O)c(O)c2)c1` [tannic acid], the “cytotoxicity (live/dead assay)” value was “cytotoxicity and death occurred significantly”.
With tannic acid-maleimide [TAMA], the “cytotoxicity (live/dead assay)” value is “a slight level of cytotoxicity”.

These data come from patent US20250073138A1, “Lipid-based nanoparticles for enhancing percutaneous absorption and manufacturing method thereof” (COSMECCA KOREA CO., LTD., priority 2023, published 2025).
